Six compounds from PubChem BioAssay AID1259407 (Chemical Carcinogenesis Research Information System (CCRIS), 2018) can be followed below.

Calls of active or inactive are those of the source. The rule behind the calls is not given here.

This data set relates to CCRIS mutagenicity, Ames/micronucleus/aberration tests. Nature of the data set: CCRIS mutagenicity studies.
The mark [1] stands for this setting: Test System: AMES SALMONELLA TYPHIMURIUM, Strain/Indicator: TA98, Metabolic Activation: NONE, Method: STANDARD PLATE.
Where [2] appears, read: Test System: AMES SALMONELLA TYPHIMURIUM, Strain/Indicator: TA98, Metabolic Activation: RAT, LIVER, S-9, AROCLOR 1254, Method: STANDARD PLATE.
[3] abbreviates: Test System: AMES SALMONELLA TYPHIMURIUM, Strain/Indicator: TA100, Metabolic Activation: NONE, Method: STANDARD PLATE.
Where [4] appears, read: Test System: AMES SALMONELLA TYPHIMURIUM, Strain/Indicator: TA100, Metabolic Activation: RAT, LIVER, S-9, AROCLOR 1254, Method: STANDARD PLATE.
[5] abbreviates: Test System: AMES SALMONELLA TYPHIMURIUM, Strain/Indicator: TA98, Metabolic Activation: NONE, Method: PREINCUBATION
Setting [6] is: Test System: AMES SALMONELLA TYPHIMURIUM, Strain/Indicator: TA100, Metabolic Activation: NONE, Method: PREINCUBATION
Setting [7] is: Test System: AMES SALMONELLA TYPHIMURIUM, Strain/Indicator: TA102, Metabolic Activation: NONE, Method: PREINCUBATION

`NC(=O)c1ccc(N)cc1`: the mutagenic call was “inactive; negative” (Test System: AMES SALMONELLA TYPHIMURIUM, Strain/Indicator: TA98, Metabolic Activation: HAMSTER, LIVER, S-9, AROCLOR 1254, Method: STANDARD PLATE); “inactive; negative” under setting [1]; “inactive; negative” under setting [2]; “inactive; negative” (Test System: AMES SALMONELLA TYPHIMURIUM, Strain/Indicator: TA100, Metabolic Activation: HAMSTER, LIVER, S-9, AROCLOR 1254, Method: STANDARD PLATE); “inactive; negative” under setting [3]; “inactive; negative” under setting [4]. The mutagenic call is, setting by setting: (Test System: AMES SALMONELLA TYPHIMURIUM, Strain/Indicator: TA1535, Metabolic Activation: HAMSTER, LIVER, S-9, AROCLOR 1254, Method: STANDARD PLATE) “inactive; negative”; (Test System: AMES SALMONELLA TYPHIMURIUM, Strain/Indicator: TA1535, Metabolic Activation: NONE, Method: STANDARD PLATE) “inactive; negative”; (Test System: AMES SALMONELLA TYPHIMURIUM, Strain/Indicator: TA1535, Metabolic Activation: RAT, LIVER, S-9, AROCLOR 1254, Method: STANDARD PLATE) “inactive; negative”; (Test System: AMES SALMONELLA TYPHIMURIUM, Strain/Indicator: TA1537, Metabolic Activation: HAMSTER, LIVER, S-9, AROCLOR 1254, Method: STANDARD PLATE) “inactive; negative”; (Test System: AMES SALMONELLA TYPHIMURIUM, Strain/Indicator: TA1537, Metabolic Activation: NONE, Method: STANDARD PLATE) “inactive; negative”; (Test System: AMES SALMONELLA TYPHIMURIUM, Strain/Indicator: TA1537, Metabolic Activation: RAT, LIVER, S-9, AROCLOR 1254, Method: STANDARD PLATE) “inactive; negative”. Also, the mutagenic call was “inactive; negative” (Test System: AMES SALMONELLA TYPHIMURIUM, Strain/Indicator: TA1538, Metabolic Activation: HAMSTER, LIVER, S-9, AROCLOR 1254, Method: STANDARD PLATE); “inactive; negative” (Test System: AMES SALMONELLA TYPHIMURIUM, Strain/Indicator: TA1538, Metabolic Activation: NONE, Method: STANDARD PLATE); “inactive; negative” (Test System: AMES SALMONELLA TYPHIMURIUM, Strain/Indicator: TA1538, Metabolic Activation: RAT, LIVER, S-9, AROCLOR 1254, Method: STANDARD PLATE); “inactive; negative” (Test System: Mouse lymphoma, Strain/Indicator: L5178Y (tk+/tk-), Metabolic Activation: None, Method: Suspension/plate); “inactive; negative” (Test System: Mouse lymphoma, Strain/Indicator: L5178Y (tk+/tk-), Metabolic Activation: Rat, Liver, S-9, Aroclor 1254, Method: Suspension/plate).

Regarding `O=c1ccc2c(cc3ccc4cccc5ccc2c3c45)c1=O`, the mutagenic call reads like this: (Test System: AMES SALMONELLA TYPHIMURIUM, Strain/Indicator: TA97A, Metabolic Activation: NONE, Method: PREINCUBATION) “active; positive”; under setting [5], “inactive; negative”; under setting [6], “inactive; negative”; under setting [7], “inactive; negative”; (Test System: AMES SALMONELLA TYPHIMURIUM, Strain/Indicator: TA104, Metabolic Activation: NONE, Method: PREINCUBATION) “inactive; negative”.

For the compound `CC1(C(=O)Nc2ccccc2)CO1` (configuration not stated), the mutagenic call runs as follows: (Test System: AMES SALMONELLA TYPHIMURIUM, Strain/Indicator: TA100, Metabolic Activation: MOUSE, LIVER, S-9, AROCLOR 1254, Method: STANDARD PLATE) “active; positive”; under setting [3], “active; positive”.

For `C\C=C(/C=C(C)/C=C(C)/C=C/C=C(\C)C(=O)[C@]12O[C@H]1[C@@](O)(CCO)NC2=O)C(=O)OC`, the mutagenic call was “inactive; negative” (Test System: AMES SALMONELLA TYPHIMURIUM, Strain/Indicator: TA97A, Metabolic Activation: NONE, Method: STANDARD PLATE); “active; positive” (Test System: AMES SALMONELLA TYPHIMURIUM, Strain/Indicator: TA97A, Metabolic Activation: RAT, LIVER, S-9, AROCLOR 1254, Method: STANDARD PLATE); “inactive; negative” under setting [1]; “active; positive” under setting [2]; “active; positive” under setting [6]; “inactive; negative” under setting [3]. Besides, the mutagenic call is, setting by setting: (Test System: AMES SALMONELLA TYPHIMURIUM, Strain/Indicator: TA100, Metabolic Activation: RAT, LIVER, MICROSOMES, PHENOBARBITAL, Method: PREINCUBATION) “active; positive”; under setting [4], “active; positive”; (Test System: AMES SALMONELLA TYPHIMURIUM, Strain/Indicator: TA102, Metabolic Activation: NONE, Method: STANDARD PLATE) “inactive; negative”; (Test System: AMES SALMONELLA TYPHIMURIUM, Strain/Indicator: TA102, Metabolic Activation: RAT, LIVER, S-9, AROCLOR 1254, Method: STANDARD PLATE) “inactive; negative”.

`CCCCC(CC)COC(=O)C(C#N)=C(c1ccccc1)c1ccccc1` (configuration not stated): the mutagenic call is “inactive; negative” (Test System: AMES SALMONELLA TYPHIMURIUM, Strain/Indicator: TA98, Metabolic Activation: HAMSTER, LIVER, S-9, AROCLOR 1254 (10%), Method: PREINCUBATION); “inactive; negative” under setting [5]; “inactive; negative” (Test System: AMES SALMONELLA TYPHIMURIUM, Strain/Indicator: TA98, Metabolic Activation: RAT, LIVER, S-9, AROCLOR 1254 (10%), Method: PREINCUBATION); “inactive; negative” (Test System: AMES SALMONELLA TYPHIMURIUM, Strain/Indicator: TA100, Metabolic Activation: HAMSTER, LIVER, S-9, AROCLOR 1254 (10%), Method: PREINCUBATION); “inactive; negative” under setting [6]; “inactive; negative” (Test System: AMES SALMONELLA TYPHIMURIUM, Strain/Indicator: TA100, Metabolic Activation: RAT, LIVER, S-9, AROCLOR 1254 (10%), Method: PREINCUBATION). In addition, the mutagenic call reads like this: (Test System: AMES SALMONELLA TYPHIMURIUM, Strain/Indicator: TA1535, Metabolic Activation: HAMSTER, LIVER, S-9, AROCLOR 1254 (10%), Method: PREINCUBATION) “inactive; negative”; (Test System: AMES SALMONELLA TYPHIMURIUM, Strain/Indicator: TA1535, Metabolic Activation: NONE, Method: PREINCUBATION) “inactive; negative”; (Test System: AMES SALMONELLA TYPHIMURIUM, Strain/Indicator: TA1535, Metabolic Activation: RAT, LIVER, S-9, AROCLOR 1254 (10%), Method: PREINCUBATION) “inactive; negative”; (Test System: AMES SALMONELLA TYPHIMURIUM, Strain/Indicator: TA1537, Metabolic Activation: HAMSTER, LIVER, S-9, AROCLOR 1254 (10%), Method: PREINCUBATION) “inactive; negative”; (Test System: AMES SALMONELLA TYPHIMURIUM, Strain/Indicator: TA1537, Metabolic Activation: NONE, Method: PREINCUBATION) “inactive; negative”; (Test System: AMES SALMONELLA TYPHIMURIUM, Strain/Indicator: TA1537, Metabolic Activation: RAT, LIVER, S-9, AROCLOR 1254 (10%), Method: PREINCUBATION) “inactive; negative”. Besides, the mutagenic call was “inactive; negative” (Test System: MOUSE LYMPHOMA, Strain/Indicator: L5178Y (TK+/TK-), Metabolic Activation: NONE, Method: SUSPENSION/PLATE) and “inactive; negative” (Test System: MOUSE LYMPHOMA, Strain/Indicator: L5178Y (TK+/TK-), Metabolic Activation: RAT, LIVER, S-9, AROCLOR 1254, Method: SUSPENSION/PLATE).

Regarding `CCCCCC[C@H](C/C=C\CCCCCCCC(=O)OC)OC(C)=O`, the mutagenic call (Test System: AMES SALMONELLA TYPHIMURIUM, Strain/Indicator: TA97, Metabolic Activation: NONE, Method: PREINCUBATION) is “inactive; negative”; the mutagenic call (Test System: AMES SALMONELLA TYPHIMURIUM, Strain/Indicator: TA97, Metabolic Activation: RAT, LIVER, S-9, AROCLOR 1254, Method: PREINCUBATION) was “inactive; negative”; the mutagenic call under setting [7] was “inactive; negative”; the mutagenic call (Test System: AMES SALMONELLA TYPHIMURIUM, Strain/Indicator: TA102, Metabolic Activation: RAT, LIVER, S-9, AROCLOR 1254, Method: PREINCUBATION) was “inactive; negative”.
